Measurements as given in patent US9856262B2, “Analogues of 4H-pyrazolo[1,5-a] benzimidazole compound as PARP inhibitors” (HUBEI BIO-PHARMACEUTICAL INDUSTRIAL TECHNOLOGICAL INSTITUTE …, priority 2014, dated 2018).

Key:
[1] = system: HCC1937 cells; assay: Cellular PARylation assay; type: cell-based; settings: Homo sapiens; HCC1937 cells, compound 30 min then 1 mM H2O2 10 min; read-out: cellular PARylation EC50
In short: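 HCC1937 cells pretreated 30 min with compound, then stimulated with 1 mM H2O2 for 10 min. Fixed cells immunostained with anti-PAR 10H and FITC secondary, with DAPI counterstain; fluorescence read on a plate reader.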

[2] = biological target: T1, PARP-1 (Homo sapiens, UniProt P09874); assay: PARP enzymatic assay (HT Universal Colorimetric PARP1 Assay Kit); type: biochemical; settings: read-out: PARP-1 enzymatic inhibition IC50
T1 construct: purchased
T1 sequence (P09874 whole entry): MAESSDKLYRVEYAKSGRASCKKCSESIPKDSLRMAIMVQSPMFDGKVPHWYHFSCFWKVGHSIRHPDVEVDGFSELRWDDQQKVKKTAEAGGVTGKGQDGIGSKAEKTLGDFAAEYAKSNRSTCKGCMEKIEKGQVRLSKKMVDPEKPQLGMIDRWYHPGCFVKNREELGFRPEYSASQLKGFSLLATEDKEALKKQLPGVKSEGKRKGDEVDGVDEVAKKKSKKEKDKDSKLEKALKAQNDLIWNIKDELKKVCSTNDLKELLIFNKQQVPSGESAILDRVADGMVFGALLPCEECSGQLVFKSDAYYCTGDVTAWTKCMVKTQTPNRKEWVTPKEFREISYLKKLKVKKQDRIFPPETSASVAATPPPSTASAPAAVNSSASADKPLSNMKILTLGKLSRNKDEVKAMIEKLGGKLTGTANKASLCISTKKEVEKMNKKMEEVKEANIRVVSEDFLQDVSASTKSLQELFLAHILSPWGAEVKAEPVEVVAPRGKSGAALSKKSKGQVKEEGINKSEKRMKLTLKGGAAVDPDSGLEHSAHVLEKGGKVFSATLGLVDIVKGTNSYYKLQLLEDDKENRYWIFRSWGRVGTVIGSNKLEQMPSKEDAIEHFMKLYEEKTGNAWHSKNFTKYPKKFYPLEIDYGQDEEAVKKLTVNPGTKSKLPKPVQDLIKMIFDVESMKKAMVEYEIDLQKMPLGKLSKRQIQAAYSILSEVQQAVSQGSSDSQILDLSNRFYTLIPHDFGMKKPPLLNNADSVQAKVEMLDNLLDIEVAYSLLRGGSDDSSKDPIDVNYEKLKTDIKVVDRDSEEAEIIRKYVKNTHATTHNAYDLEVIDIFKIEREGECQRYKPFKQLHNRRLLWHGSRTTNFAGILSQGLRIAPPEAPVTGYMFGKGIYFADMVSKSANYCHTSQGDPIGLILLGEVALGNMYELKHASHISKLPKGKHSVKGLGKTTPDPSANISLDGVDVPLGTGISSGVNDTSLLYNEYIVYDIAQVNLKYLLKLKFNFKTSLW
In short: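 Inhibition of PARP1 was measured with the HT Universal Colorimetric PARP1 Assay Kit. A 96-well plate was coated with histone proteins overnight at 4° C, washed with PBST, and blocked for 30 min at room temperature. Test compound and 20 μl of PARP1 (1 nM) were then added and incubated. Streptavidin-HRP (1:50) and chemiluminescent HRP substrate were added, and the signal was read on an Envision microplate reader.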

SMILES	EC50 [1]	IC50 [2]
CC1(c2cnn3c2[nH]c2cc(F)cc(C(N)=O)c23)CCN(CCC#N)CC1 [Example 88, 3-(1-(2-cyanoethyl)-4-methylpiperidin-4-yl)-6-fluoro-4H-benzo[4,5]imidazo[1,2-b]pyrazole-8-carboxamide]	1 to 100 nM	1 to 100 nM
NC(=O)c1cc(F)cc2[nH]c3c(C45CC4CN(C4CCC4)C5)cnn3c12 (centres unmarked) [Example 30, 3-(3-cyclobutyl-3-azabicyclo[3.1.0]hexan-1-yl)-6-fluoro-4H-benzo[4,5]imidazo[1,2-b]pyrazole-8-carboxamide]	1 to 100 nM	1 to 100 nM
NC(=O)c1cc(F)cc2c1-n1ncc(C3CCN(CC4CC4)CC3)c1C2(F)F [Example 50, 3-(1-(cyclopropylmethyl)piperidin-4-yl)-4,4,6-trifluoro-4H-pyrazolo[1,5-α]indole-8-carboxamide]	> 1000 nM	101 to 1000 nM
CC1(CN2CCC(C)(c3cnn4c3[nH]c3cc(F)cc(C(N)=O)c34)CC2)COC1 [Example 71]	1 to 100 nM	1 to 100 nM
CC(C)N1CC2CC2(c2cnn3c2[nH]c2cc(F)cc(C(N)=O)c23)C1 (centres unmarked) [Example 32, 6-fluoro-3-(3-isopropyl-3-azabicyclo[3.1.0]hexan-1-yl)-4H-benzo[4,5]imidazo[1,2-b]pyrazole-8-carboxamide]	1 to 100 nM	1 to 100 nM
Cc1nn2c([nH]c3cc(F)cc(C(N)=O)c32)c1C1(C)CCN(CC(C)C)CC1 [Example 113, 6-fluoro-3-(1-isobutyl-4-methylpiperidin-4-yl)-2-methyl-4H-benzo[4,5]imidazo[1,2-b]pyrazole-8-carboxamide]	1 to 100 nM	1 to 100 nM
CC1(c2cnn3c2[nH]c2cc(F)cc(C(N)=O)c23)CCN(CC2CC2)C1 (centres unmarked) [Example 93, 3-(1-(cyclopropylmethyl)-3-methylpyrrolidin-3-yl)-6-fluoro-4H-benzo[4,5]imidazo[1,2-b]pyrazole-8-carboxamide]	1 to 100 nM	1 to 100 nM
CNCc1ccc(F)c(-c2cnn3c2[nH]c2cc(F)cc(C(N)=O)c23)c1 [Example 44, 6-fluoro-3-(2-fluoro-5-((methylamino)methyl)phenyl)-4H-benzo[4,5]imidazo[1,2-b]pyrazole-8-carboxamide]	101 to 1000 nM	101 to 1000 nM

The next lines start with the values.

EC50 [1]	IC50 [2]	SMILES
101 to 1000 nM	1 to 100 nM	NC(=O)c1cc(F)cc2[nH]c3c(C4CCN(C5COC5)CC4)cnn3c12 [Example 11, 6-fluoro-3-(1-(oxetan-3-yl)piperidin-4-yl)-4H-benzo[4,5]imidazo[1,2-b]pyrazole-8-carboxamide]
101 to 1000 nM	1 to 100 nM	NC(=O)c1cc(F)cc2[nH]c3c(C4C5CNCC54)cnn3c12 (centres unmarked) [Example 33, 3-(3-azabicyclo[3.1.0]hexan-6-yl)-6-fluoro-4H-benzo[4,5]imidazo[1,2-b]pyrazole-8-carboxamide]
1 to 100 nM	1 to 100 nM	CN1CCC(C)(c2cnn3c2[nH]c2cc(F)cc(C(N)=O)c23)C1 (centres unmarked) [Example 91, 3-(1,3-dimethylpyrrolidin-3-yl)-6-fluoro-4H-benzo[4,5]imidazo[1,2-b]pyrazole-8-carboxamide]
1 to 100 nM	1 to 100 nM	NC(=O)c1cc(F)cc2[nH]c3c(C4CCN(C5CC5)CC4)cnn3c12 [Example 4, 3-(1-cyclopropylpiperidin-4-yl)-6-fluoro-4H-benzo[4,5]imidazo[1,2-b]pyrazole-8-carboxamide]
1 to 100 nM	1 to 100 nM	CN(C)CCN1CCC(c2cnn3c2[nH]c2cc(F)cc(C(N)=O)c23)CC1 [Example 14, 3-(1-(2-(dimethylamino)ethyl)piperidin-4-yl)-6-fluoro-4H-benzo[4,5]imidazo[1,2-b]pyrazole-8-carboxamide]
1 to 100 nM	1 to 100 nM	CCN1CCCC(c2cnn3c2[nH]c2cc(F)cc(C(N)=O)c23)CC1 (centres unmarked) [Example 18, 3-(1-ethylazepan-4-yl)-6-fluoro-4H-benzo[4,5]imidazo[1,2-b]pyrazole-8-carboxamide]
> 1000 nM	1 to 100 nM	NC(=O)c1cc(F)cc2[nH]c3c(C4CCOCC4)cnn3c12 [Example 47, 6-fluoro-3-(tetrahydro-2H-pyran-4-yl)-4H-benzo[4,5]imidazo[1,2-b]pyrazole-8-carboxamide]
1 to 100 nM	1 to 100 nM	CCCN1CCC(c2cnn3c2[nH]c2cc(F)cc(C(N)=O)c23)CC1 [Example 12, 6-fluoro-3-(1-propylpiperidin-4-yl)-4H-benzo[4,5]imidazo[1,2-b]pyrazole-8-carboxamide]
